From patent US7674451B2, “Cosmetic or pharmaceutical composition comprising peptides, uses and treatment processes” (ISP Investments Inc., priority 2002, dated 2010)
Where a SMILES comes first, the peptide text is derived from it.

System: ERG 1-2 molecule
Assay: Cell differentiation marker ERG 1-2 in HaCat keratinocytes, immunofluorescence
Assay type: cell-based
Conditions: HaCat human keratinocytes, 24 hours

N=C(N)NCCC[C@H](N)C(=O)NCC(=O)N[C@@H](CO)C(=O)O [Arg-Gly-Ser] (H-Arg-Gly-Ser-OH) was tested, and the “quantity of ERG molecules present in the cells (intensity of fluorescence)” value was “increases”.
